ChEMBL document CHEMBL1921708, “Klymollins A-H, bioactive eunicellin-based diterpenoids from the formosan soft coral Klyxum molle” (J Nat Prod, 2011)

Key:
[1] = test system: MCF7; assay: Cytotoxicity against human MCF7 cells; type: cell-based
[2] = test system: HEp-2; assay: Cytotoxicity against human Hep2 cells; type: cell-based
[3] = test system: RAW264.7; assay: Antiinflammatory activity in LPS-stimulated mouse RAW264.7 cells assessed as reduction in iNOS protein expression at 10 uM by immunoblot analysis; type: functional; set-up: scale not given: the % may be the effect or the level left
[4] = test system: RAW264.7; assay: Antiinflammatory activity in LPS-stimulated mouse RAW264.7 cells assessed as reduction in COX2 protein expression at 10 uM by immunoblot analysis; type: functional; set-up: scale not given: the % may be the effect or the level left
[5] = test system: HeLa; assay: Cytotoxicity against human HeLa cells; type: cell-based
[6] = test system: Daoy; assay: Cytotoxicity against human DaOY cells; type: cell-based

Row | Compound | Activity [1] | Activity [2] | Activity [3] [%] | Activity [4] [%] | Activity [5] | Activity [6]
1 | CCCCCCCCCCCCCC(=O)O[C@H]1CC[C@@](C)(OC(C)=O)[C@@H]2O[C@H](C[C@]1(C)O)[C@@H]1[C@H]2[C@@H](C(C)C)[C@H](OC(C)=O)[C@H](OC(C)=O)[C@@]12CO2 (relative stereo) | Non-toxic | Non-toxic | 6 | 8.5 | Non-toxic | Non-toxic
2 | CCCCCCCCCCCCCCCC(=O)O[C@H]1CC[C@@](C)(OC(C)=O)[C@@H]2O[C@H](C[C@]1(C)O)[C@@H]1[C@H]2[C@@H](C(C)C)[C@H](OC(C)=O)[C@H](OC(C)=O)[C@@]12CO2 (relative stereo) | Non-toxic | Non-toxic | 5.2 | 4.4 | Non-toxic | Non-toxic
3 | C=C1C[C@H]2O[C@H]([C@H]3[C@@H]2[C@]2(CO2)[C@@H](OC(C)=O)C[C@@H]3C(C)C)[C@](C)(OC(C)=O)CC[C@@H]1O (relative stereo) | Non-toxic | Non-toxic | 25.1 | – | Non-toxic | Non-toxic
4 | CC(=O)O[C@H]1[C@H](C(C)C)[C@@H]2[C@@H]([C@H]3C[C@](C)(O)[C@@H](OC=O)CC[C@@](C)(OC(C)=O)[C@@H]2O3)[C@]2(CO2)[C@H]1OC(C)=O [KLYMOLLIN H] | Non-toxic | Non-toxic | 32.6 | – | Non-toxic | Non-toxic
5 | CC(=O)O[C@H]1[C@H](C(C)C)[C@@H]2[C@@H]([C@H]3C[C@@H](C)C(=O)CC[C@@](C)(OC(C)=O)[C@@H]2O3)[C@](O)(CCl)[C@H]1OC(C)=O [KLYMOLLIN A] | Non-toxic | Non-toxic | – | – | Non-toxic | Non-toxic
6 | CC(=O)O[C@H]1[C@H](C(C)C)[C@@H]2[C@@H]([C@H]3C[C@](C)(O)[C@@H](OC(C)=O)CC[C@@](C)(OC(C)=O)[C@@H]2O3)[C@]2(CO2)[C@H]1OC(C)=O (relative stereo) | Non-toxic | Non-toxic | 25.7 | – | Non-toxic | Non-toxic
7 | CC(=O)O[C@H]1[C@H](C(C)C)[C@@H]2[C@@H]([C@H]3C[C@H](C)C(=O)CC[C@@](C)(OC(C)=O)[C@@H]2O3)[C@](O)(CCl)[C@H]1OC(C)=O [KLYMOLLIN B] | Non-toxic | Non-toxic | – | – | Non-toxic | Non-toxic
8 | C=C1C[C@H]2O[C@H]([C@@H]3[C@@H](C(C)C)[C@H](OC(C)=O)[C@H](OC(C)=O)[C@@]4(CO4)[C@@H]32)[C@](C)(OC(C)=O)CC[C@@H]1O (relative stereo) | Non-toxic | Non-toxic | 42.1 | – | Non-toxic | Non-toxic
